These results are taken from PubChem BioAssay (NCI).

Holding throughout (assay): DTP human tumour cell line panel, 48 h
For assay [1], the system named is TK-10 renal.
Assay [2] has as its system U251 CNS.
Assay [3] deals with DU-145 prostate.
For assay [4], the system named is MDA-N.
Assay [5] has as its system SK-MEL-5 melanoma.
Assay [6] relates to LOX IMVI melanoma.
Assay [7] concerns OVCAR-5 ovarian.
The test system of assay [8] is KM12 colon.
Assay [9] deals with HCT-116 colon.
The subject of assay [10] is OVCAR-4 ovarian.

A word on the TGI: it is the concentration giving total growth inhibition. A low value points to greater sensitivity of the cells. A word on the GI50: it is the concentration at which growth is held to half of that of the control.

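Test compounds were applied to cells in 96-well plates for 48 hours at 5 doses. GI50 is the concentration that inhibits growth by half. TGI denotes the concentration required for complete inhibition of growth.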

As for `NS(=O)(=O)c1ccc(/C=C/c2ccc(O)cc2)cc1`, the concentration for total growth inhibition (TGI) in assay [1] is more than 100 µM; in [2], more than 100 µM; in assay [3], more than 100 µM; in assay [4], more than 100 µM; in assay [5], 29 µM; in [6] it was more than 100 µM. Besides, the total growth inhibition concentration (TGI) in assay [7] was more than 100 µM; in [8] it was 30 µM; in [9], 85.6 µM; in assay [10], more than 100 µM. The GI50 in [2] was 15 µM; in [6] it was 19.1 µM; in assay [8], 11.1 µM; in assay [10] it was 36.9 µM.

As to `Cn1cc(-c2csc(-c3cn(C)c4ccccc34)n2)c2ccccc21`, the concentration for total growth inhibition (TGI) in [1], in assay [2], in assay [3], in [4], in [5] and in assay [6] was more than 100 µM in each case. Further, the TGI in [7], in assay [8], in assay [9] and in assay [10] was more than 100 µM in each case.

Take `COC(=O)/C=C1/OC(c2ccc(OC)cc2)=C(Cl)C1=O`: the TGI came out at 40.1 µM in [1]; 22.4 µM in assay [2]; 36.6 µM in [3]; 32.7 µM in [4]; 27.2 µM in [5]; 21.2 µM in [6]. Further, the total growth inhibition concentration (TGI) amounted to 31.6 µM in [7], 36.4 µM in [8], 26.5 µM in assay [9] and 30.1 µM in assay [10].

With `CC(=O)N(C(C)=O)c1cc2c3c(c1)CCCN3CCC2`, the TGI in assay [1], in assay [2], in [3], in assay [4], in [5] and in assay [6] was more than 10 µM in each case. Besides, the concentration for total growth inhibition (TGI) in assay [7], in assay [8], in assay [9] and in [10] was more than 10 µM each time.

Consider `CNc1nc(C(N)=O)c(N)s1`, for which the TGI in [1], in assay [2], in [3], in assay [4], in [5] and in assay [6] was more than 100 µM each time. In addition, the TGI in assay [7], in assay [8], in assay [9] and in [10] was more than 100 µM throughout.

For `Cc1[nH]c(=O)nc(NNCc2ccc(Cl)cc2)c1C(=O)Nc1ccc(Cl)cc1`, the TGI in assay [1], in assay [2], in assay [3], in assay [4], in [5] and in assay [6] was more than 100 µM throughout. For the same compound, the TGI in assay [7], in assay [8], in [9] and in assay [10] was more than 100 µM each time.

On to `Cc1cnc2sn(-c3ccc(Br)cc3)c(=O)c2c1`, for which the total growth inhibition concentration (TGI) in assay [1], in assay [2], in [3], in assay [4], in [5] and in [6] was more than 100 µM in each case. The concentration for total growth inhibition (TGI) was more than 100 µM in assay [7], more than 100 µM in assay [8], more than 100 µM in assay [9] and 79.3 µM in assay [10].

Turning to `CCOC(=O)c1nnc2c(C#N)c(-c3ccccc3)c(C)n2c1N`, the TGI in assay [1], in assay [2], in assay [3], in assay [4], in assay [5] and in assay [6] was more than 100 µM throughout. The TGI in assay [7] is more than 100 µM; in assay [8], more than 100 µM; in assay [9], more than 100 µM; in assay [10], 43.6 µM.

In the case of `Cc1ccc(C(=O)N/N=C(\N=Nc2ccc(C(=O)O)cc2)c2ccc(N(CCC#N)CCC#N)cc2C)cc1`, the concentration for total growth inhibition (TGI) in assay [1], in [2], in assay [3], in assay [4], in assay [5] and in assay [6] was more than 100 µM each time. For the same compound, the TGI in assay [7], in assay [8], in assay [9] and in assay [10] was more than 100 µM each time.

For `COc1ccc(-c2c(C#N)c(S)n(NS(=O)(=O)c3ccccc3)c(=O)c2C#N)cc1`, the concentration for total growth inhibition (TGI) in assay [1], in assay [2], in [3], in assay [4], in assay [5] and in assay [6] was more than 100 µM in each case. Further, the TGI in assay [7], in assay [8], in assay [9] and in assay [10] was more than 100 µM each time.

For `CC(=O)OC(C)(C)CCC(=O)[C@](C)(O)[C@H]1[C@H](O)C[C@@]2(C)[C@@H]3CCc4c(cc(OC5OC(CO)C(O)C(O)C5O)c(O)c4C)C3(C)C(=O)C[C@]12C` (some centres undefined), the TGI in assay [1], in [2], in [3], in [4], in assay [5] and in assay [6] was more than 100 µM throughout. In addition, the TGI in assay [7], in assay [8], in assay [9] and in [10] was more than 100 µM each time.

With `CCOC(=O)/C=C(/C)Nc1nc2c(c(C(=O)OC)c1C#N)CCCC2`, the concentration for total growth inhibition (TGI) in assay [1], in assay [2], in assay [3], in [4], in assay [5] and in [6] was more than 100 µM throughout. In addition, the total growth inhibition concentration (TGI) in assay [7], in assay [8], in [9] and in [10] was more than 100 µM in each case.

Regarding `CC1C(C#N)(C#N)C(C#N)=C(N)C1(Cl)[N+](=O)[O-]` (centres undefined), the TGI in [1] was 28.2 µM; in assay [2], 34.4 µM; in [3], 30.6 µM; in assay [4] it was 21.3 µM; in assay [5], 25.4 µM; in [6], 18.8 µM. Also, the total growth inhibition concentration (TGI) in [7] is 29.6 µM; in assay [8] it was 34.4 µM; in assay [9], 20.3 µM; in assay [10], 25.8 µM.
